Values quoted from earlier work as cited in article PMC7553790 (The Journal of Experimental Medicine, 2020).
Read-outs that look alike come from different tables or passages of the source.

System: Aβ42
Details: cell-based studies

SMILES	IC50 (read-out: IC50 of decreasing Aβ42, ref Imbimbo et al., 2007)	IC50 (read-out: IC50 of Aβ42, ref Rogers et al., 2012)
O=C(O)C1(c2ccc(-c3ccc(Cl)c(Cl)c3)c(F)c2)CC1 [CHF5074, 1-(3′,4′-Dichloro-2-fluoro[1,1′-biphenyl]-4-yl)-cyclopropanecarboxylic acid]	3.6 µM	–
O=C(O)[C@H](CC1CCC1)c1cc(Cl)c(OCC(F)(F)F)c(-c2ccc(C(F)(F)F)cc2)c1 [EVP-0015962]	–	> 0.02 µM
